Test results: ChEMBL document CHEMBL1147701, “Novel 4-anilinoquinazolines with C-6 carbon-linked side chains: synthesis and structure-activity relationship of a series of potent, orally active, EGF receptor tyrosine kinase inhibitors” (Bioorg Med Chem Lett, 2006)
≈ marks a conversion by molar mass, not a printed value.

Tested on: not listed separately
Assay: Volume of distribution in rat at 5 mg/kg, po and 2 mg/kg, iv
Format: ADME, organism-based
Settings: in vivo, read-out: Vdss

Row | SMILES | Vd
1 | COc1cc2ncnc(Nc3cccc(Cl)c3F)c2cc1CN1CCC[C@H]1C(N)=O | 0.7 L/kg
2 | COc1cc2ncnc(Nc3cccc(Cl)c3F)c2cc1CN(C)[C@@H](C)C(N)=O | 0.8 L/kg

Tested on: not listed separately
Assay: Half life in rat at 5 mg/kg, po and 2 mg/kg, iv
Format: ADME, organism-based
Settings: in vivo

Row | SMILES | half-life
3 | COc1cc2ncnc(Nc3cccc(Cl)c3F)c2cc1CN1CCC[C@H]1C(N)=O | 6.6 h
4 | COc1cc2ncnc(Nc3cccc(Cl)c3F)c2cc1CN(C)[C@@H](C)C(N)=O | 4.8 h

Tested on: not listed separately
Assay: Bioavailability in rat at 5 mg/kg, po and 2 mg/kg, iv
Format: ADME, organism-based
Settings: in vivo

Row | SMILES | bioavailability
5 | COc1cc2ncnc(Nc3cccc(Cl)c3F)c2cc1CN1CCC[C@H]1C(N)=O | 111%
6 | COc1cc2ncnc(Nc3cccc(Cl)c3F)c2cc1CN(C)[C@@H](C)C(N)=O | 75%

Tested on: not listed separately
Assay: Bioavailability in dog at 2 mg/kg, po and 1 mg/kg, iv
Format: ADME, organism-based, Canis lupus familiaris
Settings: in vivo

Row | SMILES | bioavailability
7 | COc1cc2ncnc(Nc3cccc(Cl)c3F)c2cc1CN1CCC[C@H]1C(N)=O | 88%
8 | COc1cc2ncnc(Nc3cccc(Cl)c3F)c2cc1CN(C)[C@@H](C)C(N)=O | 63%

Tested on: not listed separately
Assay: Distribution coefficient, logD of the compound
Format: physicochemical
Settings: octanol/water

Row | SMILES | logD
9 | COc1cc2ncnc(Nc3cccc(Cl)c3F)c2cc1CN1CCC[C@H]1C(N)=O | 3.6
10 | COc1cc2ncnc(Nc3cccc(Cl)c3F)c2cc1CN(C)[C@@H](C)C(N)=O | 3.4

Biological target: Glycogen synthase kinase-3 beta (Homo sapiens, UniProt P49841)
Sequence (P49841 whole entry): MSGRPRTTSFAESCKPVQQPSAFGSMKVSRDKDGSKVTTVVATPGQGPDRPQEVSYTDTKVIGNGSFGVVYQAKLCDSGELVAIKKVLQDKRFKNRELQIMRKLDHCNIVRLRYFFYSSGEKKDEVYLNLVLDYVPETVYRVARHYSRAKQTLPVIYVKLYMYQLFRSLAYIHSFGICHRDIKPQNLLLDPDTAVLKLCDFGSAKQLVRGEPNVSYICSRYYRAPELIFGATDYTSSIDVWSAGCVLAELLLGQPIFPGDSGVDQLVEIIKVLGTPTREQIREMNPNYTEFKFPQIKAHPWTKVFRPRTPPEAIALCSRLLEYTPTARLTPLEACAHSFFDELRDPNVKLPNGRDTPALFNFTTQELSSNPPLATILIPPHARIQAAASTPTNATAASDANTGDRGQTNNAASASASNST
Assay: Inhibition of GSK3-beta
Settings: not given

Row | SMILES | IC50
11 | COc1cc2ncnc(Nc3cccc(Cl)c3F)c2cc1CN1CCC[C@H]1C(N)=O | > 10 µM
12 | COc1cc2ncnc(Nc3cccc(Cl)c3F)c2cc1CN(C)[C@@H](C)C(N)=O | > 10 µM

Biological target: Proto-oncogene tyrosine-protein kinase Src (Homo sapiens, UniProt P12931)
Sequence (P12931 2-536 limits assumed): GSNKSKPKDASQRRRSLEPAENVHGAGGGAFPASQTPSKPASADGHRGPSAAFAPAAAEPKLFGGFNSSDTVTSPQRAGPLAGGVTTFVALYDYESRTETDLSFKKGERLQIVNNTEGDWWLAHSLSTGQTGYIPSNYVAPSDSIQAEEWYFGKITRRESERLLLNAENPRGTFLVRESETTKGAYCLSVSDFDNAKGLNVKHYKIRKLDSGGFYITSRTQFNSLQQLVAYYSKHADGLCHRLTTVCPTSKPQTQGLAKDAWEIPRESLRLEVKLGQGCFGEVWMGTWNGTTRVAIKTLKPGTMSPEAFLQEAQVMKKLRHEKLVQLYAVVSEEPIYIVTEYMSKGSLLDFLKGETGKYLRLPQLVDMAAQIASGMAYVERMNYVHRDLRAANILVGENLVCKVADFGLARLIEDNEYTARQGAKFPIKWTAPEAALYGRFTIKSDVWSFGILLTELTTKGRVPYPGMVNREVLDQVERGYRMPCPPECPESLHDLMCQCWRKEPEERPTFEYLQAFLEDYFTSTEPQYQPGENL
Assay: Inhibition of Src
Settings: not given

Row | SMILES | IC50
13 | COc1cc2ncnc(Nc3cccc(Cl)c3F)c2cc1CN1CCC[C@H]1C(N)=O | > 10 µM
14 | COc1cc2ncnc(Nc3cccc(Cl)c3F)c2cc1CN(C)[C@@H](C)C(N)=O | > 10 µM

Biological target: T1, Serine/threonine-protein kinase Chk1 (Homo sapiens, UniProt O14757)
T1 sequence (O14757 whole entry): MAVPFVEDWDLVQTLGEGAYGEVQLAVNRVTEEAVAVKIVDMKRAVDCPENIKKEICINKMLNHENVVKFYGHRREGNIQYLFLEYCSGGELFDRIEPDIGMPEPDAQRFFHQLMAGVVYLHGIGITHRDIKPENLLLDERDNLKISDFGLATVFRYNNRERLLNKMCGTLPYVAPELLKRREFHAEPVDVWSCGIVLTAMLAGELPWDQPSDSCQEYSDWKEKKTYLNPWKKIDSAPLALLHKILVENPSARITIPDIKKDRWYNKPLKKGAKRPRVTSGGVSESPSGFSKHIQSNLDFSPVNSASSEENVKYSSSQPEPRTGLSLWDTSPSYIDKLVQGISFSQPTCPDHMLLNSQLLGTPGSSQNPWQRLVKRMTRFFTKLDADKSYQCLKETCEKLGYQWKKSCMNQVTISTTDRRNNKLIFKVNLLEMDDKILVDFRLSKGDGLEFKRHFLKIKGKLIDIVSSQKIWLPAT
Assay: Inhibition of CHK1
Settings: not given

Row | SMILES | IC50
15 | COc1cc2ncnc(Nc3cccc(Cl)c3F)c2cc1CN1CCC[C@H]1C(N)=O | > 10 µM
16 | COc1cc2ncnc(Nc3cccc(Cl)c3F)c2cc1CN(C)[C@@H](C)C(N)=O | > 10 µM

Biological target: Vascular endothelial growth factor receptor 2 (Homo sapiens, UniProt P35968)
Sequence (P35968 whole entry): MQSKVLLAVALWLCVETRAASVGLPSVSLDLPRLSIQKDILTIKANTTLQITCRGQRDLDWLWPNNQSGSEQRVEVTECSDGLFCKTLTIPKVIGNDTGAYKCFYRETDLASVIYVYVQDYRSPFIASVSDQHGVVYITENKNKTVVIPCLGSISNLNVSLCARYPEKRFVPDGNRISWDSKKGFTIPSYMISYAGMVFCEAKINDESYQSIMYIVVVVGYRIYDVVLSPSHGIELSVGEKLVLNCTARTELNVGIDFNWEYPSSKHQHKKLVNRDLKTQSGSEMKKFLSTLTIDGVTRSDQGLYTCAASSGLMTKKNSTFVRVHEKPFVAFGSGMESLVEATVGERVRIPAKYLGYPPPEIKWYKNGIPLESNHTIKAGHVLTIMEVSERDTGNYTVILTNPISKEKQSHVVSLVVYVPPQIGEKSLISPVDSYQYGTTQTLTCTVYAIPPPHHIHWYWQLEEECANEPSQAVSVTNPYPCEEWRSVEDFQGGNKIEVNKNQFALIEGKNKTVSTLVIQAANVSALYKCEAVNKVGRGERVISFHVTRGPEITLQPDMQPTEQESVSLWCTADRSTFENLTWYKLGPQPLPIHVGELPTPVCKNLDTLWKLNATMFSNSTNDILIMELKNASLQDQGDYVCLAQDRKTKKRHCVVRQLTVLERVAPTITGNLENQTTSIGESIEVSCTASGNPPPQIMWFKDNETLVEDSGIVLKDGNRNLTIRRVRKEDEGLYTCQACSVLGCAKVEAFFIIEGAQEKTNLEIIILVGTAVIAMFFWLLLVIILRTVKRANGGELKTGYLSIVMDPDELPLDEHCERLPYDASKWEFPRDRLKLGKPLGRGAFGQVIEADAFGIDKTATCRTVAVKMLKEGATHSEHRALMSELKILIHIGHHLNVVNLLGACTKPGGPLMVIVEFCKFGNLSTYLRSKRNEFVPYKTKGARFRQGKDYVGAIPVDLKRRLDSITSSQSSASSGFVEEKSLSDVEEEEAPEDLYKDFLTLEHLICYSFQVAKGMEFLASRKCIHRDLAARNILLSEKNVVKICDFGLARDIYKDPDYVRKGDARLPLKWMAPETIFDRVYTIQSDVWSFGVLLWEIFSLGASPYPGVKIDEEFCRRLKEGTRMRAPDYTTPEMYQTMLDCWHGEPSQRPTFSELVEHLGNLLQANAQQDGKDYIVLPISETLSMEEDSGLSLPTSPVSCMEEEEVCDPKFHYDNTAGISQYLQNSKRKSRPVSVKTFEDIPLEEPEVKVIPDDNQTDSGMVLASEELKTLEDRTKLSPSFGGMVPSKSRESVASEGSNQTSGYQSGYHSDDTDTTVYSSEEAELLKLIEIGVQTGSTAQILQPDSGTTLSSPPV
Settings: not given

Row | SMILES | IC50
17 | COc1cc2ncnc(Nc3cccc(Cl)c3F)c2cc1CN1CCC[C@H]1C(N)=O | > 10 µM
18 | COc1cc2ncnc(Nc3cccc(Cl)c3F)c2cc1CN(C)[C@@H](C)C(N)=O | > 10 µM

Tested on: not listed separately
Assay: Solubility in phosphate buffer at pH 7.4
Format: physicochemical
Settings: not given

Row | SMILES | solubility
19 | COc1cc2ncnc(Nc3cccc(Cl)c3F)c2cc1CN1CCC[C@H]1C(N)=O | 260 µM (≈ 112 µg/mL)
20 | COc1cc2ncnc(Nc3cccc(Cl)c3F)c2cc1CN(C)[C@@H](C)C(N)=O | 40 µM (≈ 16.7 µg/mL)

Biological target: Mitogen-activated protein kinase 1 (Homo sapiens, UniProt P28482)
Sequence (P28482 whole entry): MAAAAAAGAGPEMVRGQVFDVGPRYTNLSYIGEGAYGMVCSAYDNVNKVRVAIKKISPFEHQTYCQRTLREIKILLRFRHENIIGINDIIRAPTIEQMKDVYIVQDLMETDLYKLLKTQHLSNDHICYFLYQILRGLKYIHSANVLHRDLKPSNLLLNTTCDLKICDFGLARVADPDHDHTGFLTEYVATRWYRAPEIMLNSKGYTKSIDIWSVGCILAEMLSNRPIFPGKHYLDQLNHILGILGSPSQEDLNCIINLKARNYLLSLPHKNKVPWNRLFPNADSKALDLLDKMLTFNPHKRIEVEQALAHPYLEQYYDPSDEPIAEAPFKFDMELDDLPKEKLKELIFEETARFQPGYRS
Assay: Inhibition of MAPK
Settings: not given

Row | SMILES | IC50
21 | COc1cc2ncnc(Nc3cccc(Cl)c3F)c2cc1CN1CCC[C@H]1C(N)=O | > 10 µM
22 | COc1cc2ncnc(Nc3cccc(Cl)c3F)c2cc1CN(C)[C@@H](C)C(N)=O | > 10 µM

Tested on: not listed separately
Assay: Inhibition of CDK
Settings: not given

Row | SMILES | IC50
23 | COc1cc2ncnc(Nc3cccc(Cl)c3F)c2cc1CN1CCC[C@H]1C(N)=O | > 10 µM
24 | COc1cc2ncnc(Nc3cccc(Cl)c3F)c2cc1CN(C)[C@@H](C)C(N)=O | > 10 µM

Tested on: LoVo
Assay: Antitumor activity against human LoVo cell line xenografted in athymic mouse at 50 mg/kg/day after 13 days
Format: functional
Settings: 312 h

Row | SMILES | inhibition in vivo at 50 mg/kg/day
25 | COc1cc2ncnc(Nc3cccc(Cl)c3F)c2cc1CN(C)[C@@H](C)C(N)=O | 60%

Tested on: not listed separately
Assay: Percent of unbound drug in dog plasma
Format: ADME, organism-based, Canis lupus familiaris
Settings: not given

Row | SMILES | fraction unbound
26 | COc1cc2ncnc(Nc3cccc(Cl)c3F)c2cc1CN1CCC[C@H]1C(N)=O | 0.01
27 | COc1cc2ncnc(Nc3cccc(Cl)c3F)c2cc1CN(C)[C@@H](C)C(N)=O | 0.01

Tested on: not listed separately
Assay: Clearance in dog at 2 mg/kg, po and 1 mg/kg, iv
Format: ADME, organism-based, Canis lupus familiaris
Settings: in vivo

Row | SMILES | clearance
28 | COc1cc2ncnc(Nc3cccc(Cl)c3F)c2cc1CN1CCC[C@H]1C(N)=O | 5 mL/min/kg
29 | COc1cc2ncnc(Nc3cccc(Cl)c3F)c2cc1CN(C)[C@@H](C)C(N)=O | 14 mL/min/kg

Tested on: not listed separately
Assay: Inhibition of P450
Format: ADME
Settings: not given

Row | SMILES | IC50
30 | COc1cc2ncnc(Nc3cccc(Cl)c3F)c2cc1CN1CCC[C@H]1C(N)=O | > 10 µM
31 | COc1cc2ncnc(Nc3cccc(Cl)c3F)c2cc1CN(C)[C@@H](C)C(N)=O | > 10 µM

Biological target: Rho-associated protein kinase 2 (Homo sapiens, UniProt O75116)
Sequence (O75116 whole entry): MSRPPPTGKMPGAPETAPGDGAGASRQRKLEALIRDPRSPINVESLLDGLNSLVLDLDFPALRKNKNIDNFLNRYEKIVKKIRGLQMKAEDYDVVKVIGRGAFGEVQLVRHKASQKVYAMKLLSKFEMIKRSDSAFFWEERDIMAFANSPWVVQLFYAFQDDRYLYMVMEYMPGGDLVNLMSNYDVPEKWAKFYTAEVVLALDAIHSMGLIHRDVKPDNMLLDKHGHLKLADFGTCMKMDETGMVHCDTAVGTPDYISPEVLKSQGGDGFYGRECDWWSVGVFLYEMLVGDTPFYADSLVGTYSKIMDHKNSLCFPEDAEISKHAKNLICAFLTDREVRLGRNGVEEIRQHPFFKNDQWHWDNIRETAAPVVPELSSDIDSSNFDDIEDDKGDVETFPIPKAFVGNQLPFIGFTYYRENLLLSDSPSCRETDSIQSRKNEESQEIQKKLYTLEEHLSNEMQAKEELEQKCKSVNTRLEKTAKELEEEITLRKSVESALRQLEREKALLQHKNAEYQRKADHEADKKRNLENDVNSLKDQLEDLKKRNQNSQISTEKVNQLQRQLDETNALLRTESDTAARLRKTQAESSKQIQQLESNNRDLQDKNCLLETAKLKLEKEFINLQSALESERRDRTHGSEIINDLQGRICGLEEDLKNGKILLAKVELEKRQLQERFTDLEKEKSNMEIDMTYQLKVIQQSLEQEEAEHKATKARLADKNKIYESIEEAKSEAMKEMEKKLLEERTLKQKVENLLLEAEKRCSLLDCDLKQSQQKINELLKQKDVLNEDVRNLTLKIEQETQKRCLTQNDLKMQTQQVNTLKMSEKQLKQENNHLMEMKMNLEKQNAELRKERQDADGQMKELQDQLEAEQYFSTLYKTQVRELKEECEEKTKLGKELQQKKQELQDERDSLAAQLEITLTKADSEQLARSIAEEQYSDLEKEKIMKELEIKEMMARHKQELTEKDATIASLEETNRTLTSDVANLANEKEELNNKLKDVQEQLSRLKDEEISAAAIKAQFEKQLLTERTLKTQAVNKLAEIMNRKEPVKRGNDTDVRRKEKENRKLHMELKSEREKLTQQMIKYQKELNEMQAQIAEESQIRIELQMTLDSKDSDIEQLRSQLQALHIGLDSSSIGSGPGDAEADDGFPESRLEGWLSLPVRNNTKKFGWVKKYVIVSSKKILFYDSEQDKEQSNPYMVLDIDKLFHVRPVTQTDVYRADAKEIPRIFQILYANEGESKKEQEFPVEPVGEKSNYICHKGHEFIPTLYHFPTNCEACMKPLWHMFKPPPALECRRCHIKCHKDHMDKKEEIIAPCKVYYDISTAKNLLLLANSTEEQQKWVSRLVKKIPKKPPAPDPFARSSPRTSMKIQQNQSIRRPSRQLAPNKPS
Assay: Inhibition of ROCK2
Settings: not given

Row | SMILES | IC50
32 | COc1cc2ncnc(Nc3cccc(Cl)c3F)c2cc1CN1CCC[C@H]1C(N)=O | > 10 µM
33 | COc1cc2ncnc(Nc3cccc(Cl)c3F)c2cc1CN(C)[C@@H](C)C(N)=O | > 10 µM

Biological target: T2, Serine/threonine-protein kinase Sgk1 (Homo sapiens, UniProt O00141)
T2 sequence (O00141 whole entry): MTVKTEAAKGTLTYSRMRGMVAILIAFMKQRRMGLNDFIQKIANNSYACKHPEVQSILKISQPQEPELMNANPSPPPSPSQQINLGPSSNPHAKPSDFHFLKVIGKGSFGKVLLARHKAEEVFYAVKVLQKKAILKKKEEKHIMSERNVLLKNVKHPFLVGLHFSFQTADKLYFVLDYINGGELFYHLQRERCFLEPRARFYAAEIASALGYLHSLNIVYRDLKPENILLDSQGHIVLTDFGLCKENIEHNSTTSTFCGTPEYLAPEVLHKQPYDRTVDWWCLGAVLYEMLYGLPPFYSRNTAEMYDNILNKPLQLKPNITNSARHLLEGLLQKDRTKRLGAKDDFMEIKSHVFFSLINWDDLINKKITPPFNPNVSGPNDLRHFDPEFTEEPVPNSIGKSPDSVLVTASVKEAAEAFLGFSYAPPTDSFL
Assay: Inhibition of SGK
Settings: not given

Row | SMILES | IC50
34 | COc1cc2ncnc(Nc3cccc(Cl)c3F)c2cc1CN1CCC[C@H]1C(N)=O | > 10 µM
35 | COc1cc2ncnc(Nc3cccc(Cl)c3F)c2cc1CN(C)[C@@H](C)C(N)=O | > 10 µM

Biological target: AMP-activated protein kinase, AMPK
Assay: Inhibition of AMPK
Format: protein-complex assay
Settings: not given

Row | SMILES | IC50
36 | COc1cc2ncnc(Nc3cccc(Cl)c3F)c2cc1CN1CCC[C@H]1C(N)=O | > 10 µM
37 | COc1cc2ncnc(Nc3cccc(Cl)c3F)c2cc1CN(C)[C@@H](C)C(N)=O | > 10 µM

Tested on: not listed separately
Assay: Volume of distribution in dog at 2 mg/kg, po and 1 mg/kg, iv
Format: ADME, organism-based, Canis lupus familiaris
Settings: in vivo, read-out: Vdss

Row | SMILES | Vd
38 | COc1cc2ncnc(Nc3cccc(Cl)c3F)c2cc1CN1CCC[C@H]1C(N)=O | 0.4 L/kg
39 | COc1cc2ncnc(Nc3cccc(Cl)c3F)c2cc1CN(C)[C@@H](C)C(N)=O | 0.4 L/kg

Biological target: cAMP-dependent protein kinase (PKA) (Homo sapiens, UniProt P22694+P17612+P22612)
Assay: Inhibition of PKA
Format: protein assay
Settings: not given

Row | SMILES | IC50
40 | COc1cc2ncnc(Nc3cccc(Cl)c3F)c2cc1CN1CCC[C@H]1C(N)=O | > 10 µM
41 | COc1cc2ncnc(Nc3cccc(Cl)c3F)c2cc1CN(C)[C@@H](C)C(N)=O | > 10 µM

Biological target: c-Jun N-terminal kinase, JNK (Homo sapiens, UniProt P45983+P53779+P45984)
Assay: Inhibition of JNK
Format: protein assay
Settings: not given

Row | SMILES | IC50
42 | COc1cc2ncnc(Nc3cccc(Cl)c3F)c2cc1CN1CCC[C@H]1C(N)=O | > 10 µM
43 | COc1cc2ncnc(Nc3cccc(Cl)c3F)c2cc1CN(C)[C@@H](C)C(N)=O | > 10 µM

Tested on: not listed separately
Assay: Percent of unbound drug in rat plasma
Format: ADME, organism-based
Settings: not given

Row | SMILES | fraction unbound
44 | COc1cc2ncnc(Nc3cccc(Cl)c3F)c2cc1CN1CCC[C@H]1C(N)=O | 0.037
45 | COc1cc2ncnc(Nc3cccc(Cl)c3F)c2cc1CN(C)[C@@H](C)C(N)=O | 0.065

Tested on: LoVo
Assay: Antitumor activity against human LoVo cell line xenografted in athymic mouse at 25 mg/kg/day after 18 days
Format: functional
Settings: 432 h

Row | SMILES | inhibition in vivo at 25 mg/kg/day
46 | COc1cc2ncnc(Nc3cccc(Cl)c3F)c2cc1CN1CCC[C@H]1C(N)=O | 43%

Tested on: not listed separately
Assay: Apparent permeability from apical to basolateral side of the Caco-2 cell
Format: ADME, cell-based
Settings: human, read-out: permeability

Row | SMILES | Papp A→B
47 | COc1cc2ncnc(Nc3cccc(Cl)c3F)c2cc1CN1CCC[C@H]1C(N)=O | > 13 ×10⁻⁶ cm/s
48 | COc1cc2ncnc(Nc3cccc(Cl)c3F)c2cc1CN(C)[C@@H](C)C(N)=O | > 13 ×10⁻⁶ cm/s

Biological target: Tyrosine-protein kinase Lck (Homo sapiens, UniProt P06239)
Sequence (P06239 whole entry): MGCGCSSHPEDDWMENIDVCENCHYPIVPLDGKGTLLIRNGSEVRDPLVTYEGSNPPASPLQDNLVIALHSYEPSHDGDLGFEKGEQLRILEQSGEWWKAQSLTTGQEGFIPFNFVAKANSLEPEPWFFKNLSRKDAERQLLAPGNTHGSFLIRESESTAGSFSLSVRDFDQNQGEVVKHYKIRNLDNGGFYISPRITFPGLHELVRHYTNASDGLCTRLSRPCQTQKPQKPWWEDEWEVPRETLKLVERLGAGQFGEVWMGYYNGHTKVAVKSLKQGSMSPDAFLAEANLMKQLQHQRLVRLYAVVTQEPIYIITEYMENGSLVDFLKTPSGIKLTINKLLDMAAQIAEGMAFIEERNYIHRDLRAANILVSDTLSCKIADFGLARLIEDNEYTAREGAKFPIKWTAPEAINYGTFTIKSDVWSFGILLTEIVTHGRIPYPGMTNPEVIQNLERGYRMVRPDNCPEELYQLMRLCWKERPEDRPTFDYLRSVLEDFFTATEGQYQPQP
Settings: not given

Row | SMILES | IC50
49 | COc1cc2ncnc(Nc3cccc(Cl)c3F)c2cc1CN1CCC[C@H]1C(N)=O | > 10 µM
50 | COc1cc2ncnc(Nc3cccc(Cl)c3F)c2cc1CN(C)[C@@H](C)C(N)=O | > 10 µM

Tested on: not listed separately
Assay: Half life in dog at 2 mg/kg, po and 1 mg/kg, iv
Format: ADME, organism-based, Canis lupus familiaris
Settings: in vivo

Row | SMILES | half-life
51 | COc1cc2ncnc(Nc3cccc(Cl)c3F)c2cc1CN1CCC[C@H]1C(N)=O | 0.7 h
52 | COc1cc2ncnc(Nc3cccc(Cl)c3F)c2cc1CN(C)[C@@H](C)C(N)=O | 0.4 h

Tested on: not listed separately
Assay: Percent of unbound drug in human plasma
Format: ADME, organism-based
Settings: not given

Row | SMILES | fraction unbound
53 | COc1cc2ncnc(Nc3cccc(Cl)c3F)c2cc1CN1CCC[C@H]1C(N)=O | 0.05
54 | COc1cc2ncnc(Nc3cccc(Cl)c3F)c2cc1CN(C)[C@@H](C)C(N)=O | 0.05

Tested on: not listed separately
Assay: Clearance in rat at 5 mg/kg, po and 2 mg/kg, iv
Format: ADME, organism-based
Settings: in vivo

Row | SMILES | clearance
55 | COc1cc2ncnc(Nc3cccc(Cl)c3F)c2cc1CN1CCC[C@H]1C(N)=O | 3 mL/min/kg
56 | COc1cc2ncnc(Nc3cccc(Cl)c3F)c2cc1CN(C)[C@@H](C)C(N)=O | 12 mL/min/kg

Biological target: MAP kinase p38 (Homo sapiens, UniProt O15264+Q15759+Q16539+P53778)
Settings: not given

Row | SMILES | IC50
57 | COc1cc2ncnc(Nc3cccc(Cl)c3F)c2cc1CN(C)[C@@H](C)C(N)=O | > 10 µM
